The text below walks through data of patent US8809361B2, “2,3-dihydrofuro[2,3-c]pyridines, their use as modulators of the G-protein-coupled receptor GPR119 and pharmaceutical compositions thereof” (Boehringer Ingelheim International GmbH, priority 2012, dated 2014).

A word on the EC50: it is the concentration giving half of the maximal effect. The low end stands for a more potent agent, the high end for a less potent agent.

This assay has as its target T1, human GPR119 (Homo sapiens, UniProt Q8TDV5).
T1 construct: expression vector for human GPR119 cDNA (Acc. No. NP_848566); expressed in transfected cells
T1 sequence (Q8TDV5 1-335): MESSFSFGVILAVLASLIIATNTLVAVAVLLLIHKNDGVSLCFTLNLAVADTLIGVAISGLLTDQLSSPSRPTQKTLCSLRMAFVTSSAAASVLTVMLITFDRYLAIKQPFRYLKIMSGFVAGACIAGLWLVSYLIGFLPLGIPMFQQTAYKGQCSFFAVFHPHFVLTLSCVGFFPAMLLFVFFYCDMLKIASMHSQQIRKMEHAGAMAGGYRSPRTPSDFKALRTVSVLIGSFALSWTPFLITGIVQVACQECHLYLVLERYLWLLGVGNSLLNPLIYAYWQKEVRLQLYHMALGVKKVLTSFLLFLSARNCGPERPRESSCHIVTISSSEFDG
In words: GPR119 activation / intracellular cAMP stimulation, AlphaScreen cAMP Assay in Min-6/hGPR119 cells. Format: cell-based. The note with it: MIN6 cells stably transfected with human GPR119, 45 minutes incubation at room temperature. The protocol:
The compounds of formula I according to the invention modulate the activity of the G-protein-coupled receptor GPR119. The effect of the compounds on the activation of GPR119 and on the stimulation of intracellular cAMP concentration is determined using the AlphaScreen cAMP Assay Kit (Cat. No. #6760625R) made by PerkinElmer.
MIN6 cells [Miyazaki J et al., Endocrinology. 1990 July; 127(1):126-32] are stably transfected with an expression vector for human GPR119 cDNA (Acc. No. NP_848566). Min-6/hGPR119 cells are cultured in DMEM, 10% FBS, 50 μM β-mercaptoethanol, 0.3 mg/mL Geniticin, 2 mM GlutaMAX at 37° C., 5% CO2. For the assay, the cells are seeded in Optiplates (white, 384-well, 160W-barcoded, TC, sterile with lid, Cat. No. #6007688 (Perkin Elmer); 10000 cells/well; 50 μL). The plates covered with lids are then incubated for 24 hours at 37° C., 5% CO2. After the medium is aspirated from the wells completely, 10 ill of the test compound are added, the compounds are diluted using stimulating buffer (140 mM NaCl, 3.6 mM KCl, 0.5 mM NaH2PO4, 0.5 mM MgSO4, 1.5 mM CaCl2, 10 mM Hepes, 5 mM NaHCO3; pH 7.4. 0.5 mM IBMX and 0.1% BSA, the final DMSO concentration is 1%). After 45 minutes incubation at room temperature (approx. 20° C.), the cAMP concentrations are determined using the AlphaScreen cAMP Assay Kit (Cat. No. #6760625R from PerkinElmer).
For orientation: In Alpha technology, singlet oxygen from a donor bead excites a nearby acceptor bead.
In the case of `CC(C)(C)OC(=O)N1CCC2(CC1)CC1(Cc3cc(-c4ccc(S(C)(=O)=O)cc4)ncc3O1)C2` [Example 1, 5-(4-Methylsulfonyl-phenyl)-1″-tert-butoxycarbonyl-dispiro[2,3-dihydrofuro[2,3-c]pyridine-2,1′-cyclobutane-3′,4″-piperidine]], the concentration for a half-maximal effect (EC50) was found to be 21 nM. For the molecule `CC(C)(C)OC(=O)N1CCC2(CC1)CC1(Cc3cc(C4=CCN(S(C)(=O)=O)CC4)ncc3O1)C2` [Example 2, 5-(1-Methanesulfonyl-1,2,3,6-tetrahydro-pyridin-4-yl)-1″-tert-butoxycarbonyl-dispiro[2,3-dihydrofuro[2,3-c]pyridine-2,1′-cyclobutane-3′,4″-piperidine]], the concentration for a half-maximal effect (EC50) came out at 50 nM. Molecule `CC(C)(C)OC(=O)N1CCC2(CC1)CC1(Cc3cc(-c4ccc(S(C)(=O)=O)cc4F)ncc3O1)C2` [Example 3, 5-(2-Fluoro-4-methylsulfonyl-phenyl)-1″-tert-butoxycarbonyl-dispiro[2,3-dihydrofuro[2,3-c]pyridine-2,1′-cyclobutane-3′,4″-piperidine]] showed a half-maximal effective concentration (EC50) of 15 nM.

In turn, `CCc1cnc(N2CCC3(CC2)CC2(Cc4cc(-c5ccc(S(C)(=O)=O)cc5)ncc4O2)C3)nc1` [Example 4, 1″-(5-Ethyl-pyrimidin-2-yl)-5-(4-methylsulfonyl-phenyl)-dispiro[2,3-dihydrofuro[2,3-c]pyridine-2,1′-cyclobutane-3′,4″-piperidine]] registered a concentration for a half-maximal effect (EC50) of 18 nM.

On to `CS(=O)(=O)c1ccc(-c2cc3c(cn2)OC2(C3)CC3(CCN(CC4(C(F)(F)F)CC4)CC3)C2)cc1` [Example 5, 5-(4-Methylsulfonyl-phenyl)-1″-[(1-trifluoromethyl-cyclopropyl)-methyl]-dispiro[2,3-dihydrofuro[2,3-c]pyridine-2,1′-cyclobutane-3′,4″-piperidine]], for which it took 362 nM to reach a half-maximal effect (EC50). To `CC(C)(F)CN1CCC2(CC1)CC1(Cc3cc(-c4ccc(S(C)(=O)=O)cc4)ncc3O1)C2` [Example 6, 1″-(2-Fluoro-2-methyl-propyl)-5-(4-methylsulfonyl-phenyl)-dispiro[2,3-dihydrofuro[2,3-c]pyridine-2,1′-cyclobutane-3′,4″-piperidine]] belongs 135 nM; to `Cc1cnc(N2CCC3(CC2)CC2(Cc4cc(-c5ccc(S(C)(=O)=O)cc5)ncc4O2)C3)nc1` [Example 7, 1″-(5-Methyl-pyrimidin-2-yl)-5-(4-methylsulfonyl-phenyl)-dispiro[2,3-dihydrofuro[2,3-c]pyridine-2,1′-cyclobutane-3′,4″-piperidine]], 42 nM. With `CC1=C(c2cc3c(cn2)OC2(C3)CC3(CCN(C(=O)OC(C)(C)C)CC3)C2)CCN(S(C)(=O)=O)C1` [Example 8, 5-(1-Methanesulfonyl-5-methyl-1,2,3,6-tetrahydro-pyridin-4-yl)-1″-tert-butoxycarbonyl-dispiro[2,3-dihydrofuro[2,3-c]pyridine-2,1′-cyclobutane-3′,4″-piperidine]], the EC50 is 19 nM. This EC50 lies about 2.2-fold lower than the previous one. With `CS(=O)(=O)N1CC=C(c2cc3c(cn2)OC2(C3)CC3(CCN(c4ncc(Cl)cn4)CC3)C2)CC1` [Example 9, 1″-(5-Chloro-pyrimidin-2-yl)-5-(1-methanesulfonyl-1,2,3,6-tetrahydro-pyridin-4-yl)-dispiro[2,3-dihydrofuro[2,3-c]pyridine-2,1′-cyclobutane-3′,4″-piperidine]], the EC50 was 6 nM.

For the molecule `CC(C)OC(=O)N1CCC2(CC1)CC1(Cc3cc(C4=CCN(S(C)(=O)=O)CC4)ncc3O1)C2` [Example 10, 1″-(Isopropyloxycarbonyl)-5-(1-methanesulfonyl-1,2,3,6-tetrahydro-pyridin-4-yl)-dispiro[2,3-dihydrofuro[2,3-c]pyridine-2,1′-cyclobutane-3′,4″-piperidine]], the midpoint of the response, the EC50, lay at 16 nM. For `CS(=O)(=O)N1CC=C(c2cc3c(cn2)OC2(C3)CC3(CCN(c4ccc(C(F)(F)F)cn4)CC3)C2)CC1` [Example 11, 5-(1-Methanesulfonyl-1,2,3,6-tetrahydro-pyridin-4-yl)-1″-(5-trifluoromethyl-pyridin-2-yl)-dispiro[2,3-dihydrofuro[2,3-c]pyridine-2,1′-cyclobutane-3′,4″-piperidine]], the 50% effective concentration (EC50) is 13 nM. To `CC1(OC(=O)N2CCC3(CC2)CC2(Cc4cc(C5=CCN(S(C)(=O)=O)CC5)ncc4O2)C3)CC1` [Example 12, 5-(1-Methanesulfonyl-1,2,3,6-tetrahydro-pyridin-4-yl)-1″-(1-methyl-cyclopropyloxycarbonyl)-dispiro[2,3-dihydrofuro[2,3-c]pyridine-2,1′-cyclobutane-3′,4″-piperidine]] belongs 11 nM; to `CC(C)(C)OC(=O)N1CCC2(CC1)CC1(Cc3cc(-c4ccc(S(C)(=O)=O)nc4)ncc3O1)C2` [Example 13, 5-(6-Methanesulfonyl-pyridin-3-yl)-1″-tert-butoxycarbonyl-dispiro[2,3-dihydrofuro[2,3-c]pyridine-2,1′-cyclobutane-3′,4″-piperidine]], 42 nM.

As to `CC(C)(C)OC(=O)N1CCC2(CC1)CC1(Cc3cc(-c4ccc(C#N)cc4F)ncc3O1)C2` [Example 14, 5-(4-Cyano-2-fluoro-phenyl)-1″-tert-butoxycarbonyl-dispiro[2,3-dihydrofuro[2,3-c]pyridine-2,1′-cyclobutane-3′,4″-piperidine]], the EC50 was 60 nM. The molecule `CC(C)Oc1cnc(N2CCC3(CC2)CC2(Cc4cc(C5=CCN(S(C)(=O)=O)CC5)ncc4O2)C3)nc1` [Example 15, 1″-(5-Isopropoxy-pyrimidin-2-yl)-5-(1-methanesulfonyl-1,2,3,6-tetrahydro-pyridin-4-yl)-dispiro[2,3-dihydrofuro[2,3-c]pyridine-2,1′-cyclobutane-3′,4″-piperidine]] showed a half-maximal effective concentration (EC50) of 10 nM. `CCCc1cnc(N2CCC3(CC2)CC2(Cc4cc(C5=CCN(S(C)(=O)=O)CC5)ncc4O2)C3)nc1` [Example 16, 5-(1-Methanesulfonyl-1,2,3,6-tetrahydro-pyridin-4-yl)-1″-(5-n-propyl-pyrimidin-2-yl)-dispiro[2,3-dihydrofuro[2,3-c]pyridine-2,1′-cyclobutane-3′,4″-piperidine]]: a half-maximal response (EC50) required 4 nM. As for `CS(=O)(=O)N1CC=C(c2cc3c(cn2)OC2(C3)CC3(CCN(c4ncc(C5CC5)cn4)CC3)C2)CC1` [Example 17, 1″-(5-Cyclopropyl-pyrimidin-2-yl)-5-(1-methanesulfonyl-1,2,3,6-tetrahydro-pyridin-4-yl)-dispiro[2,3-dihydrofuro[2,3-c]pyridine-2,1′-cyclobutane-3′,4″-piperidine]], the concentration for a half-maximal effect (EC50) is 9 nM. `CC(C)(C)OC(=O)N1CCC2(CC1)CC1(Cc3cc(-c4ccc(CS(C)(=O)=O)cc4)ncc3O1)C2` [Example 18, 5-(4-Methylsulfonylmethyl-phenyl)-1″-tert-butoxycarbonyl-dispiro[2,3-dihydrofuro[2,3-c]pyridine-2,1′-cyclobutane-3′,4″-piperidine]] returned an EC50 of 24 nM. For `CC(C)(C)OC(=O)N1CCC2(CC1)CC1(Cc3cc(C4CCN(S(C)(=O)=O)CC4)ncc3O1)C2` [Example 19, 5-(1-Methanesulfonyl-piperidin-4-yl)-1″-tert-butoxycarbonyl-dispiro[2,3-dihydrofuro[2,3-c]pyridine-2,1′-cyclobutane-3′,4″-piperidine]], a half-maximal response (EC50) required 106 nM. In turn, `CS(=O)(=O)N1CC=C(c2cc3c(cn2)OC2(C3)CC3(CCN(c4nnc(C(F)(F)F)s4)CC3)C2)CC1` [Example 20, 5-(1-Methanesulfonyl-1,2,3,6-tetrahydro-pyridin-4-yl)-1″-(5-trifluoromethyl-[1,3,4]thiadiazol-2-yl)-dispiro[2,3-dihydrofuro[2,3-c]pyridine-2,1′-cyclobutane-3′,4″-piperidine]] registered an EC50 of 10 nM. This EC50 is about 11-fold lower than that of the molecule before. Take `CC(C)(C)OC(=O)N1CCC2(CC1)CC1(Cc3cc(N4CCN(S(C)(=O)=O)CC4)ncc3O1)C2` [Example 21, 5-(4-Methanesulfonyl-piperazin-1-yl)-1″-tert-butoxycarbonyl-dispiro[2,3-dihydrofuro[2,3-c]pyridine-2,1′-cyclobutane-3′,4″-piperidine]]: the midpoint of the response, the EC50, lay at 77 nM. To `CCNC(=O)c1ccc(-c2cc3c(cn2)OC2(C3)CC3(CCN(C(=O)OC(C)(C)C)CC3)C2)cc1` [Example 22, 5-(4-Ethylaminocarbonyl-phenyl)-1″-tert-butoxycarbonyl-dispiro[2,3-dihydrofuro[2,3-c]pyridine-2,1′-cyclobutane-3′,4″-piperidine]] belongs 28 nM.
